These are literature values, as cited in patent publication US20090117199A1, “Method of treatment of cancer” (priority 1998, published 2009).

Series [1] deals with melanoma. As to conditions: cited from earlier work.
Series [2] has as its system melanoma. As to conditions: single-agent chemotherapy; cited from earlier work.
Where [3] appears, read: IL cisplatin or IL cisplatin with electroporation, lower end of reported results.
The mark [4] stands for this setting: IL cisplatin or IL cisplatin with electroporation, upper end of reported results.

Where two headings read alike, the source gives them in different places.

As for bleomycin, in series [1] (single electrochemotherapy treatment, IL, response reduced in larger tumors), the efficacy entry was “Substantial efficacy”.

In the case of `CN(C)/N=N/c1[nH]cnc1C(N)=O` [dacarbazine], the “cases in which treatment is successful” value in series [2] is 10-15%.

In the case of `N.N.[Cl][Pt][Cl]` [cisplatin], the CR is reported as 19% in series [1] (setting [3]) and 47% in series [1] (setting [4]). Besides, the ORR is 38% in series [1] (setting [3]), 53% in series [1] (setting [4]), 44% in series [1] (lesions having a median diameter of 3.0 cm) and 53% in series [1] (lesions with a median diameter of 0.6 cm). Besides, the figures for the PR in series [1] (setting [3]) and in series [1] (setting [4]) were 19% and 7%, respectively.

B1: IFNγ: IL interferon (protein, UniProt P01579 24-161, looked up)
Interferon gamma: QDPYVKEAENLKKYFNAGHSDVADNGTLFLGILKNWKEESDRKIMQSQIVSFYFKLFKNFKDDQSIQKSVETIKEDMNVKFFNSNKKKRDDFEKLTNYSVTDLNVQRKAIHELIQVMAELSPAAKTGKRKRSQMLFRG
Consider B1, for which the response result in series [1] (IL therapy, prior reports) is “no result of transient response”. For the same molecule, the “toxicity and side effects” value in series [1] (in vivo) was “significant toxicity and side effects”.
